Entries after “also recorded” stand apart in the source; their conditions may differ. Like-named read-outs stand apart in the source and are kept apart here.
Tests used:
dorsal raphe neurons = conditions: systemic administration (I.V. and intragastric for metabolites), rats; cited from earlier work
human 5-HT1A receptor = biological target: T1, human 5-HT1A receptor (Homo sapiens, UniProt P08908); assay: 5-HT1A receptor binding assay (3H-8-OH-DPAT)
T1 construct: expressed in transfected cells; host or cells: HEK293
T1 sequence (P08908 1-422): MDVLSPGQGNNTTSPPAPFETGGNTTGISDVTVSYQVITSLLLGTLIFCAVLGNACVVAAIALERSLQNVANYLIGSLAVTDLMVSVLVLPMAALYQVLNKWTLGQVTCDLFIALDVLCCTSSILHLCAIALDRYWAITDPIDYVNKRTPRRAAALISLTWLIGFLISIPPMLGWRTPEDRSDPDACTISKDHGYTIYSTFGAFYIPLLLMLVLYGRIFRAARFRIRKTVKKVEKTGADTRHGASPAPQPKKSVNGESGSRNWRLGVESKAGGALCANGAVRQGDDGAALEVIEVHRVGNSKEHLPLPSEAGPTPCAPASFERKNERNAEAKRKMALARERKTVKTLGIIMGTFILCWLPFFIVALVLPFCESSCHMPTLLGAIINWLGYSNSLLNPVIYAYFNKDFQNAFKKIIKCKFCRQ

[1] = cited from earlier work
[2] = cited from earlier work; remark: listed apart in the source
[3] = tested on: rat pup locomotor activity; assay: Locomotor activity (grid cell crossings) in the rat pup; type: in vivo, rat (Harlan Sprague-Dawley pups); conditions: sc; for locomotor activity (in words): 0.03-1 mg/kg
[4] = tested on: rat pup ultrasonic vocalization; assay: Rat pup isolation-induced ultrasonic vocalization test; type: in vivo, rat (Harlan Sprague-Dawley pups); conditions: for suppression of rat pup ultrasonic vocalization: 0.03-1 mg/kg, cold plate; for suppression of rat pup ultrasonic vocalization / ED50: sc, 30 min prior to test; for ED50: Rattus norvegicus, 0.5 h, doses refer to weight of the salt, read-out: ID50, dose predicted to reduce the number of calls by 50%; for anxiolytic activity in rat pup isolation-induced ultrasonic vocalization model (in words): in vivo
[5] = Modified Vogel Conflict test; type: in vivo; conditions: earlier in-house testing
Description: Earlier in-house functional testing of BMY 28674 utilized an in vivo test method based on modification of the Vogel Conflict test, a simple reliable conflict procedure for testing antianxiety agents (see: Vogel, et al., Psychopharmacologia, (Berl.) 21, pp. 1-7, 1971). […] No useful antianxiety activity has been ascribed to BMY 28674 previously.

[6] = Human pharmacokinetic study, multiple oral buspirone doses (25 days); type: in vivo
Description: The human dosing schedule is shown below. |______________________________________ […] | Interval BID Dose (mg) (Study Day) |______________________________________ […] | 3 15 15 […] | 5 30 25 |______________________________________

[7] = Previous laboratory testing for antianxiety properties; conditions: laboratory methods developed for azapirone compounds

Compound	inhibition of dorsal raphe neuronal firing (dorsal raphe neurons)	affinity for human 5-HT1A receptor (in words) (human 5-HT1A receptor)	locomotor activity (in words) ([3]; 30 min prior to test)	suppression of rat pup ultrasonic vocalization [4]	ED50 [4]	anxiolytic activity in rat pup isolation-induced ultrasonic vocalization model (in words) [4]	further results
c1cnc(N2CCNCC2)nc1 [1-PP, 1-(2-pyrimidinyl)piperazine]	weak inhibition	does not demonstrate binding					anxiogenic properties in other behavioral testing paradigms ([1]; Cervo et al., 1988, Martin, 1991): displayed anxiogenic properties; antianxiety activity in certain other preclinical tests ([1]; U.S. Pat. No. 4,409,223): some antianxiety activity
Oc1cnc(N2CCNCC2)nc1 [5-hydroxy-1PP, reference compound]							abundance as metabolite in human urine ([2]; in vivo): most
O=C1CC2(CCCC2)C(O)C(=O)N1CCCCN1CCN(c2ncccn2)CC1 (stereo not drawn) [BMY 28674, 6-hydroxy-8-[4-[4-(2-pyrimidinyl)-piperazinyl]-butyl]-8-azaspiro[4.5]-7,9-dione]		binding affinity that approaches that of buspirone; also recorded: binding affinity closer to that of buspirone	significantly impaired	dose-dependent suppression	0.13 mg/kg	anxiolytic-like activity	abundance as metabolite in human urine ([2]; after buspirone): second most abundant metabolite; ED50 ([3]; Rattus norvegicus, 0.5 h, 30 min prior to test, doses refer to weight of the salt, read-out: ID50 dose estimated to reduce locomotor activity): 0.41 mg/kg; ratio of doses impairing locomotor activity to doses suppressing ultrasonic calls ([3]; locomotor vs ultrasonic calls, 30 min): approximately 3 fold; doses for anxiolytic activity relative to those required to suppress motor activity ([4]; vs suppression of motor activity): much lower doses; antianxiety response in the Vogel test [5]: did not elicit an antianxiety response; blood concentration relative to 1-PP ([6]; after oral buspirone, BMY 28674 vs 1-PP): several-fold greater; also recorded: several-fold higher; blood levels compared to buspirone (in words) ([6]; oral buspirone BID, 12-hour dosing period): much higher and are sustained compared to buspirone; antianxiety activity in previous testing [7]: no anxiolytic activity was detected; also recorded: No significant antianxiety activity
O=C1CC2(CCCC2)CC(=O)N1CCCCN1CCN(c2ncccn2)CC1 [Buspirone, reference compound]	potently inhibits		impaired	dose-dependent suppression	0.1 mg/kg	anxiolytic-like activity	concentration at 2 h ([6]; human, in vivo, po): < 1 ng/mL
